Our source for the IC50 values is patent US20250145585A1, “HETEROCYCLIC INHIBITORS OF IGF-1R FOR TREATMENT OF DISEASE” (HORIZON THERAPEUTICS IRELAND DAC, priority 2023, published 2025).

This assay addresses T1, IGF-1R (Homo sapiens, UniProt P08069).
T1 construct: expressed in transfected cells
In words: Example B-1: IGF-1R Assay (PC3 cells stimulated with IGF1, AlphaLISA on cell lysates). Conditions: compound two hours, IGF1 200 ng/mL for 30 min, read-out: IC50, Biological Activity against IGF-1R (Table B1). It is filed as cell-based. On the procedure:
50K PC3 cells were seeded on day 1 in 50 μL of media in 96-well plate and incubated overnight at 37° C., 5% CO2. On day 2, all cells were expected to be at 80-90% confluency. Cells were starved for two hours by changing the media to 90 μL of EMEM serum-free media and incubated for 2 hours. Next, cells were treated with 10 μL of 10× concentrated and 3× serially diluted compounds for two hours. It makes 1× of compounds in 100 μL media. This was followed by stimulation of cells with 11×IGF1 for 30 min in 10 μL of serum-free EMEM media at the final concentration of 200 ng/mL.
The media was removed and replaced by 50 μL of 1× lysis buffer from the AlphaLISA kit (with 1× of cOmplete™ protease inhibitor). The plates were sealed, and cells were allowed to lyse for 10 min in the shaker before storing the plate at −20° C. until used. The AlphaLISA assay with processed cell lysates were performed as described in the protocol. Briefly, 10 μL of the undiluted sample were loaded to 384 well Optiplates and 5 μL of the acceptor mix (as described in the AlphaLISA kit) was added to each well. The plates were sealed and briefly vortexed followed by the incubation at RT for 3 hours. In the dark, 5 μL of donor mix was added to each well. All plates were sealed and stored at RT overnight. The plates were read in EnVision reader using standard AlphaLISA settings.
Compound activity was analyzed using CBIS data analysis suite (Cheminnovation, CA). Percentage inhibition was calculated using the following formula: % I-hibition=100%×(1−(mea−RLU of test sample−mean RLU of vehicle control)/(mean-RLU of EC80 control−mean RLU of vehicle control)). The activity for representative examples of the invention is shown in the following table, wherein A: IC50≤500 nM; B: 500 nM<IC50≤2 μM; C: 2 μM<IC50≤10 μM; D: IC50>10 μM.
(In general: Bead proximity is the source of the signal in Alpha formats.)

Structures are written as SMILES.

T1 sequence (P08069 31-1367): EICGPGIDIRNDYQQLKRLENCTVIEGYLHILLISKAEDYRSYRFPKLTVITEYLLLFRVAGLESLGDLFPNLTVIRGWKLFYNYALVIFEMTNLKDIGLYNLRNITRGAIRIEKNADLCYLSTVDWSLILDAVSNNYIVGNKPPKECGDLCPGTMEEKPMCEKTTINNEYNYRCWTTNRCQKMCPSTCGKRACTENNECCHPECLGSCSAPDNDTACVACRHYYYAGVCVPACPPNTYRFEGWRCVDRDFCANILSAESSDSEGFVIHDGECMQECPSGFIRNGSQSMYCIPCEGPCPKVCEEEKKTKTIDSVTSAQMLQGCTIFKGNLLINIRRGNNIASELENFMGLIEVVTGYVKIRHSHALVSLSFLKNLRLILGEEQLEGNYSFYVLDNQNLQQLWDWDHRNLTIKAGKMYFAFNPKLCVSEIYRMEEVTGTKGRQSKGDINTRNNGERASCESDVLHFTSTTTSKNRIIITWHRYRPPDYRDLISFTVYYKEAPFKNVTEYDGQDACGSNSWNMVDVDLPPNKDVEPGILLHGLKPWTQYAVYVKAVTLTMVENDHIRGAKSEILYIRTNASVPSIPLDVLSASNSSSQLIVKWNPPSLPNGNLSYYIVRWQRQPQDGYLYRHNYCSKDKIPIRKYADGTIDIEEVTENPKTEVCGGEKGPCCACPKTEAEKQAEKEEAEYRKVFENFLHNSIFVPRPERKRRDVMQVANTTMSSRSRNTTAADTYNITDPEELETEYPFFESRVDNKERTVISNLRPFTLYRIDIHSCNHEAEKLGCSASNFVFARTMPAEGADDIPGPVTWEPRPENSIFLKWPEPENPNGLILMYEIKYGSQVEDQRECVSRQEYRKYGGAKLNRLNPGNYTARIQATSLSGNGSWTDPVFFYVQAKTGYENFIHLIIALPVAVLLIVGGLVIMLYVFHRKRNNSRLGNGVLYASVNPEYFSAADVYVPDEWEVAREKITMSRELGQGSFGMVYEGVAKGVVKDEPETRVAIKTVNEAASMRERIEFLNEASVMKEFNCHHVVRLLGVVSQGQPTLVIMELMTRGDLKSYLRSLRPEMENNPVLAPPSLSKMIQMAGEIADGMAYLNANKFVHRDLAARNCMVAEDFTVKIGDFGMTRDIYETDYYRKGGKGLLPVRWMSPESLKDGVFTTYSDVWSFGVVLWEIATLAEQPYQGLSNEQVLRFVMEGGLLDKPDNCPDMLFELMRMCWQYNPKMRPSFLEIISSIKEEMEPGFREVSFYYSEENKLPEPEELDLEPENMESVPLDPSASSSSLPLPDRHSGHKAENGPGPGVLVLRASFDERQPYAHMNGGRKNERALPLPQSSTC

Regarding `CC1(C)C(=O)N(c2ccc(CC(F)(F)F)cc2)C(=O)N1Cc1ccnc(N)c1` [Compound 94, 1-((2-aminopyridin-4-yl)methyl)-5,5-dimethyl-3-(4-(2,2,2-trifluoroethyl)phenyl)imidazolidine-2,4-dione], the IC50 (as a rule, the concentration that inhibits the measured activity by half) was no more than 500 nM.
As for `CC1(C)C(=O)N(c2ccc(C(C)(C)C(F)(F)F)cc2)C(=O)N1Cc1ccnc(N)c1` [Compound 95, 1-((2-aminopyridin-4-yl)methyl)-5,5-dimethyl-3-(4-(1,1,1-trifluoro-2-methylpropan-2-yl)phenyl)imidazolidine-2,4-dione], the figure is no more than 500 nM.
As for `CC(C)Nc1cc(CN2C(=O)N(c3ccc([C@H]4C[C@@H]4F)cc3)C(=O)C2(C)C)ccn1` [Compound 96, 3-(4-((1R,2S)-2-fluorocyclopropyl)phenyl)-1-((2-(isopropylamino)pyridin-4-yl)methyl)-5,5-dimethylimidazolidine-2,4-dione], the IC50 was 500 to 2000 nM.
`CC(C)Nc1cc(CN2C(=O)N(c3ccc(C4(F)CC4)cc3)C(=O)C2(C)C)ccn1` [Compound 99, 3-(4-(1-fluorocyclopropyl)phenyl)-1-((2-(isopropylamino)pyridin-4-yl)methyl)-5,5-dimethylimidazolidine-2,4-dione]: the IC50 was in the range of 500 to 2000 nM.
On to `CC1(C)C(=O)N(c2ccc(C3(CO)CC3)cc2)C(=O)N1Cc1ccnc(N)c1` [Compound 100, 1-((2-aminopyridin-4-yl)methyl)-3-(4-(1-(hydroxymethyl)cyclopropyl)phenyl)-5,5-dimethylimidazolidine-2,4-dione], for which the IC50 lay within 500 to 2000 nM.
As for `CC(C)Nc1cc(CN2C(=O)N(c3ccc(C4(C)CCC4)cc3)C(=O)C2(C)C)ccn1` [Compound 101, 1-((2-(isopropylamino)pyridin-4-yl)methyl)-5,5-dimethyl-3-(4-(1-methylcyclobutyl)phenyl)imidazolidine-2,4-dione], the figure is no more than 500 nM.
Turning to `CC(C)Nc1cc(CN2C(=O)N(c3ccc(C4CC(F)(F)C4)cc3)C(=O)C2(C)C)ccn1` [Compound 102, 3-(4-(3,3-difluorocyclobutyl)phenyl)-1-((2-(isopropylamino)pyridin-4-yl)methyl)-5,5-dimethylimidazolidine-2,4-dione], the IC50 was 500 to 2000 nM.
As for `CC1(C)C(=O)N(c2ccc(C3(C(F)(F)F)CC3)cc2)C(=O)N1Cc1ccnc(NCC(F)F)c1` [Compound 103, 1-((2-((2,2-difluoroethyl)amino)pyridin-4-yl)methyl)-5,5-dimethyl-3-(4-(1-(trifluoromethyl)cyclopropyl)phenyl) imidazolidine-2,4-dione], the IC50 is no more than 500 nM.
With `COC[C@H](C)Nc1cc(CN2C(=O)N(c3ccc(C4(C(F)(F)F)CC4)cc3)C(=O)C2(C)C)ccn1` [Compound 105, (S)-1-((2-((1-methoxypropan-2-yl)amino)pyridin-4-yl)methyl)-5,5-dimethyl-3-(4-(1-(trifluoromethyl)cyclopropyl)phenyl) imidazolidine-2,4-dione], the IC50 is no more than 500 nM.
For the compound `CC(C)Nc1cc(CN2C(=O)N(c3ccc(C4CC4(C)C)cc3)C(=O)C2(C)C)ccn1` (centres unmarked) [Compound 108, 3-(4-(2,2-dimethylcyclopropyl)phenyl)-1-((2-(isopropylamino)pyridin-4-yl)methyl)-5,5-dimethylimidazolidine-2,4-dione], the IC50 was no more than 500 nM.
With `CC(C)Nc1cc(CN2C(=O)N(c3ccc(C45CC(C)(C4)C5)cc3)C(=O)C2(C)C)ccn1` [Compound 112, 1-((2-(isopropylamino)pyridin-4-yl)methyl)-5,5-dimethyl-3-(4-(3-methylbicyclo[1.1.1]pentan-1-yl)phenyl)imidazolidine-2,4-dione], the IC50 lay within 2000 to 10000 nM.
As to `CC1(C)CC(Nc2cc(CN3C(=O)N(c4ccc(C5(C(F)(F)F)CC5)cc4)C(=O)C3(C)C)ccn2)CCO1` (centres unmarked) [Compound 113, 1-((2-((2,2-dimethyltetrahydro-2H-pyran-4-yl)amino)pyridin-4-yl)methyl)-5,5-dimethyl-3-(4-(1-(trifluoromethyl)cyclopropyl)phenyl) imidazolidine-2,4-dione], the IC50 was no more than 500 nM.
As for `CC(C)Nc1cc(CN2C(=O)N(c3ccc(C4(C(F)(F)F)CCC4)cc3)C(=O)C2(C)C)ccn1` [Compound 115, 1-((2-(isopropylamino)pyridin-4-yl)methyl)-5,5-dimethyl-3-(4-(1-(trifluoromethyl)cyclobutyl)phenyl) imidazolidine-2,4-dione], the IC50 was no more than 500 nM.
The result for `CC(C)Nc1cc(CN2C(=O)N(c3ccc(C4(C)CC(F)(F)C4)cc3)C(=O)C2(C)C)ccn1` [Compound 116, 3-(4-(3,3-difluoro-1-methylcyclobutyl)phenyl)-1-((2-(isopropylamino)pyridin-4-yl)methyl)-5,5-dimethylimidazolidine-2,4-dione] reads no more than 500 nM; that for `CC(C)Nc1cc(CN2C(=O)N(c3ccc(C45CC(C4)C5)cc3)C(=O)C2(C)C)ccn1` [Compound 117, 3-(4-(bicyclo[1.1.1]pentan-1-yl)phenyl)-1-((2-(isopropylamino)pyridin-4-yl)methyl)-5,5-dimethylimidazolidine-2,4-dione], no more than 500 nM.
As to `CC(C)Nc1cc(CN2C(=O)N(c3ccc(S(F)(F)(F)(F)F)cc3)C(=O)C2(C)C)ccn1` [Compound 178, 1-((2-(isopropylamino)pyridin-4-yl)methyl)-5,5-dimethyl-3-(4-(pentafluoro-16-sulfanyl)phenyl)imidazolidine-2,4-dione], the IC50 is no more than 500 nM.
For the compound `CC1(C)C(=O)N(c2ccc(S(F)(F)(F)(F)F)cc2)C(=O)N1Cc1ccnc(N)c1` [Compound 179, 1-((2-aminopyridin-4-yl)methyl)-5,5-dimethyl-3-(4-(pentafluoro-16-sulfanyl)phenyl)imidazolidine-2,4-dione], the IC50 is no more than 500 nM.
The result for `CC1(C)C(=O)N(c2ccc3c(C(F)(F)F)n[nH]c3c2)C(=O)N1Cc1ccnc(N)c1` [Compound 254, 1-((2-aminopyridin-4-yl)methyl)-5,5-dimethyl-3-(3-(trifluoromethyl)-1H-indazol-6-yl)imidazolidine-2,4-dione] reads 500 to 2000 nM.
As to `CCc1cn(C)c2cc(N3C(=O)N(Cc4ccnc(NC(C)C)c4)C(C)(C)C3=O)ccc12` [Compound 257, 3-(3-ethyl-1-methyl-1H-indol-6-yl)-1-((2-(isopropylamino)pyridin-4-yl)methyl)-5,5-dimethylimidazolidine-2,4-dione], the IC50 was 500 to 2000 nM.
With `CC(C)Nc1cc(CN2C(=O)N(c3ccc(C(C)(C)C)cc3)C(=O)C2(C)C)ccn1` [Compound 263, 3-(4-(tert-butyl)phenyl)-1-((2-(isopropylamino)pyridin-4-yl)methyl)-5,5-dimethylimidazolidine-2,4-dione], the IC50 is no more than 500 nM.
Take `COCC(C)Nc1cc(CN2C(=O)N(c3ccc(C(C)(C)C)cc3)C(=O)C2(C)C)ccn1` (centres unmarked) [Compound 265, 3-(4-(tert-butyl)phenyl)-1-((2-((1-methoxypropan-2-yl)amino)pyridin-4-yl)methyl)-5,5-dimethylimidazolidine-2,4-dione]: the IC50 was no more than 500 nM.
`CC(C)(C)c1ccc(N2C(=O)N(Cc3ccnc(NC4CCOCC4)c3)C(C)(C)C2=O)cc1` [Compound 266, 3-(4-(tert-butyl)phenyl)-5,5-dimethyl-1-((2-((tetrahydro-2H-pyran-4-yl)amino)pyridin-4-yl)methyl)imidazolidine-2,4-dione]: the IC50 was no more than 500 nM.
As to `COC[C@@H](C)Nc1cc(CN2C(=O)N(c3ccc(C(C)(C)C)cc3)C(=O)C2(C)C)ccn1` [Compound 268, (R)-3-(4-(tert-butyl)phenyl)-1-((2-((1-methoxypropan-2-yl)amino)pyridin-4-yl)methyl)-5,5-dimethylimidazolidine-2,4-dione], the IC50 was no more than 500 nM.
As to `COC[C@H](C)Nc1cc(CN2C(=O)N(c3ccc(C(C)(C)C)cc3)C(=O)C2(C)C)ccn1` [Compound 269, (S)-3-(4-(tert-butyl)phenyl)-1-((2-((1-methoxypropan-2-yl)amino)pyridin-4-yl)methyl)-5,5-dimethylimidazolidine-2,4-dione], the IC50 was no more than 500 nM.
Take `CC(C)(C)c1ccc(N2C(=O)N(Cc3ccnc(NC4CC(F)(F)C4)c3)C(C)(C)C2=O)cc1` [Compound 270, 3-(4-(tert-butyl)phenyl)-1-((2-((3,3-difluorocyclobutyl)amino)pyridin-4-yl)methyl)-5,5-dimethylimidazolidine-2,4-dione]: the IC50 was no more than 500 nM.
The result for `CC(C)(C)c1ccc(N2C(=O)N(Cc3ccnc(NC4(CO)CC4)c3)C(C)(C)C2=O)cc1` [Compound 271, 3-(4-(tert-butyl)phenyl)-1-((2-((1-(hydroxymethyl)cyclopropyl)amino)pyridin-4-yl)methyl)-5,5-dimethylimidazolidine-2,4-dione] reads 500 to 2000 nM.
